The structures appear in SMILES notation.

The nature of series [1]: RO membrane compatibility soak, overall conclusion. To be noted: 300 ppm, simulated 1 year.
The nature of series [2]: RO membrane compatibility soak, clean water flux and salt rejection. To be noted: Koch HRX; 57 ppm, simulated 3 Years, soak 234 hr, 77 F. As for the experimental part:
In particular, the effects of PFA on reverse osmosis members which contain a polyamide structure in comparison with known control chemicals was tested. Three different membranes were tested including Koch HRX, Hydranautics CPAS and Hydranautics ESPA2+. Membranes were soaked in duplicate, in chemistries according to Table 4.
Membranes were then conditioned in Ultrasil 110 at a pH of 11 for 90 minutes at 50° C., followed by a rinse in DI water.
Each of the chemistries, with the exception of PFA was refreshed daily. PFA was refreshed hourly. After the simulated exposure the membranes are rinsed with DI water and placed on the Flat Sheet Membrane skid (Model M20). The membranes were rinsed with DI water for 24 hours at standard UF pressure and temperature. Once 24 hours was completed the membranes were subjected to alkaline conditioning step until solution pH is 11. 15.14 grams of NaCl was added to the recirculating water (2000 ppm NaCl) and the system was allowed to continue circulating. The conductivity of each permeate tube and feed was then measured and recorded and shown as percent rejection. The percent rejection was determined by (conductivity of the feed−conductivity of the permeate)/(conductivity of the feed).

With `O=COO` [PFA, peroxyformic acid], the “flux and salt rejection results versus control (in words)” value in series [1] is on record as “comparable results to that of the commercially-available control peroxyacetic acid compositions at 3 years”.

In the case of `CC(=O)OO` [Peracetic acid], in series [2], the “Water Flux (LMH) Peracetic acid” value is recorded as 75.22 LMH.

The values are drawn from patent US12296365B2, “Peroxyformic acid compositions for membrane filtration cleaning” (ECOLAB USA INC., priority 2015, dated 2025).
